Source: patent US6599882B1, “Secretin and secretin pharmaceuticals for treating lactose intolerance” (priority 1999, dated 2003)
Ends that are not written are not given here.

System: lactose intolerant individuals

secretin (HSDGTFTSELSRLRDSARLQRLLQGLV; ends and bridges not checked; UniProt P63298 33-59, looked up)
time after infusion until some slight symptoms of lactose intolerance started again (one severely lactose intolerant individual, one-time infusion): about 3 months | symptoms of lactose intolerance after consuming dairy and other lactose containing products (one-time intravenous infusion, 1 CU per kilogram of body weight over about 1 to 4 minutes, prolonged period of time after treatment, listed as secretion): without experiencing any of the symptoms of lactose intolerance
